# According to patent US10758534B2 (Vertex Pharmaceuticals Incorporated, priority 2014, dated 2020):
# Molecular target: T1, F508del (Homo sapiens, UniProt P13569, DEL508-508)
# T1 construct: expressed in transfected cells
# Assay: Protocol 1: membrane potential optical assay (FLIPR III, voltage sensing dye), identification of potentiator compounds
# Format: cell-based
# Settings: Table 3, compounds of Table 1
# Outline: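 NIH3T3 F508del cells, 27° C × 24 hrs; compound/DMSO pretreat → redistribution dye load → single forskolin addition with Cl⁻ gradient (gluconate-substituted bath, HEPES pH 7.4). FLIPR III membrane-potential fluorescence read.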
# T1 sequence (P13569 with tags, fused parts or gaps DEL508-508): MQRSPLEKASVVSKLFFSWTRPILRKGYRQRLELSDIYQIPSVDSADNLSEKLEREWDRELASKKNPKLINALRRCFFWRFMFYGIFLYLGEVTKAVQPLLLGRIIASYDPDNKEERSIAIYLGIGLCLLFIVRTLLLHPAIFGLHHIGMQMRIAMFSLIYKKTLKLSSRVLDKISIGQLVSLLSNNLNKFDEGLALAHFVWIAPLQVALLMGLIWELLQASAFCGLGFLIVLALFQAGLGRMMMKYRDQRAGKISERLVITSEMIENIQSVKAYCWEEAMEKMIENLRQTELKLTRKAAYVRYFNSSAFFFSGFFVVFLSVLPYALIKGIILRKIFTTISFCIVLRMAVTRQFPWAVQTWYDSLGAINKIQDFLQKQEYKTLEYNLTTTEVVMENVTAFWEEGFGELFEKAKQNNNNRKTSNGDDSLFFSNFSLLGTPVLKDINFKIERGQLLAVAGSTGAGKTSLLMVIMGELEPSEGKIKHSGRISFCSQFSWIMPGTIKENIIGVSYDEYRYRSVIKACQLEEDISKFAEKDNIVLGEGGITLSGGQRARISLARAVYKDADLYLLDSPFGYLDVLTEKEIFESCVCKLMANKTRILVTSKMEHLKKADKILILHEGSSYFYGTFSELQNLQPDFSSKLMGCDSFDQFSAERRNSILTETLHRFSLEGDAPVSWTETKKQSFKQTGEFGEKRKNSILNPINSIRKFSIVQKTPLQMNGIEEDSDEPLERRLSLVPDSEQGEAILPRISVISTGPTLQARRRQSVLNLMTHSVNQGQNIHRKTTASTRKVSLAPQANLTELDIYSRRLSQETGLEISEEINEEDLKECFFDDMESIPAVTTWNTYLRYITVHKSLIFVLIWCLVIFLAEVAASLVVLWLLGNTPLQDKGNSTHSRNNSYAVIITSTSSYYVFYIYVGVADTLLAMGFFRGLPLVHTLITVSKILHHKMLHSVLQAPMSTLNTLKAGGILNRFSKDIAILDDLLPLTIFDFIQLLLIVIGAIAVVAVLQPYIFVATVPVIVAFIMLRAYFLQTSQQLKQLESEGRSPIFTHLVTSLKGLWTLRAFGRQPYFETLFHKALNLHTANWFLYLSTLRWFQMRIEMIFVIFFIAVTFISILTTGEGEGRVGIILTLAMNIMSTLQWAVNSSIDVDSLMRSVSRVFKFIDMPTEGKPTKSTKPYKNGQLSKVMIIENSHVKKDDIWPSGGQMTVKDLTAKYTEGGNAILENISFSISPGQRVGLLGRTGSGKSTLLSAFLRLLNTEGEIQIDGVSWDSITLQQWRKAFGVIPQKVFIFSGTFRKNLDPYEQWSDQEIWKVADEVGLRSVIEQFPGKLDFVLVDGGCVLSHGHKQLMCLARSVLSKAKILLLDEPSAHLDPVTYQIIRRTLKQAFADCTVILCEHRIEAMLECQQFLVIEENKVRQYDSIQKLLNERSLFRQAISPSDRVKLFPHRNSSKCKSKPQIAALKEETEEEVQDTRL
row,EC30,SMILES
1,+++ (“+++” means <3 uM),"CC(C)Oc1ccc(-c2ccc(C(=O)NS(=O)(=O)c3ccn[nH]3)c(N3C[C@H](C)C[C@@H](C)C3)n2)cn1 [Compound 990, 2-[(3R,5R)-3,5-dimethyl-1-piperidyl]-6-(6-isopropoxy-3-pyridyl)-N-(1H-pyrazol-5-ylsulfonyl)pyridine-3-carboxamide]"
2,+++ (“+++” means <3 uM),"CC(C)Oc1ccc(-c2ccc(C(=O)NS(=O)(=O)c3cccc(N)n3)c(N3CC[C@@H](C)C3(C)C)n2)cn1 [Compound 992, N-[(6-amino-2-pyridyl)sulfonyl]-6-(6-isopropoxy-3-pyridyl)-2-[(3R)-2,2,3-trimethylpyrrolidin-1-yl]pyridine-3-carboxamide]"
3,+++ (“+++” means <3 uM),"COc1ncc(Cl)cc1-c1ccc(C(=O)NS(=O)(=O)c2cccc(N)n2)c(Oc2c(C)cc(C)cc2C)n1 [Compound 993, N-[(6-amino-2-pyridyl)sulfonyl]-6-(5-chloro-2-methoxy-3-pyridyl)-2-(2,4,6-trimethylphenoxy)pyridine-3-carboxamide]"
4,+++ (“+++” means <3 uM),"CC(C)Oc1ccc(-c2ccc(C(=O)NS(=O)(=O)c3cccc(N)n3)c(N3CCCC3Cc3ccccc3)n2)cn1 (stereo not shown) [Compound 994, N-[(6-amino-2-pyridyl)sulfonyl]-2-(2-benzylpyrrolidin-1-yl)-6-(6-isopropoxy-3-pyridyl)pyridine-3-carboxamide]"
5,+++ (“+++” means <3 uM),"Cc1cc(C(=O)NS(=O)(=O)c2cccc(N)n2)c(N2CC(C)CC2(C)C)nc1-c1ccc(OC(C)C)nc1 (stereo not shown) [Compound 995, N-[(6-amino-2-pyridyl)sulfonyl]-6-(6-isopropoxy-3-pyridyl)-5-methyl-2-(2,2,4-trimethylpyrrolidin-1-yl)pyridine-3-carboxamide]"
6,++ (“++” means between 3 uM and 10 uM),"CC(CO)Oc1ccc(-c2ccc(C(=O)NS(=O)(=O)c3cccc(N)n3)c(N3[C@H](C)CC[C@@H]3C)n2)cn1 (stereo partly drawn) [Compound 998, N-[(6-amino-2-pyridyl)sulfonyl]-2-[(2S,5R)-2,5-dimethylpyrrolidin-1-yl]-6-[6-(2-hydroxy-1-methyl-ethoxy)-3-pyridyl]pyridine-3-carboxamide]"
7,+++ (“+++” means <3 uM),"Cc1cc(C)c(Oc2nc(-c3ccc(C)c(F)c3)ccc2C(=O)NS(=O)(=O)c2cccc(N)n2)c(C)c1 [Compound 1000, N-[(6-amino-2-pyridyl)sulfonyl]-6-(3-fluoro-4-methyl-phenyl)-2-(2,4,6-trimethylphenoxy)pyridine-3-carboxamide]"
8,+++ (“+++” means <3 uM),"CC1CCCN(c2nc(C(C)(C)C)ccc2C(=O)NS(=O)(=O)c2cccc(N)n2)C1 (stereo not shown) [Compound 1008, N-[(6-amino-2-pyridyl)sulfonyl]-6-tert-butyl-2-(3-methyl-1-piperidyl)pyridine-3-carboxamide]"
9,+++ (“+++” means <3 uM),"CC(C)Oc1ccc(-c2ccc(C(=O)NS(=O)(=O)c3cccc(N)n3)c(N3CCC(OCc4ccccc4)CC3)n2)cn1 [Compound 1012, N-[(6-amino-2-pyridyl)sulfonyl]-2-(4-benzyloxy-1-piperidyl)-6-(6-isopropoxy-3-pyridyl)pyridine-3-carboxamide]"
10,+++ (“+++” means <3 uM),"Cc1ccc(-c2ccc(C(=O)NS(=O)(=O)c3cccc(N)n3)c(Oc3ccc(C)cc3C)n2)cc1 [Compound 1015, N-[(6-amino-2-pyridyl)sulfonyl]-2-(2,4-dimethylphenoxy)-6-(p-tolyl)pyridine-3-carboxamide]"
11,+++ (“+++” means <3 uM),"Cc1cc(C)c(Oc2nc(-c3cccc(C(C)C)c3)ccc2C(=O)NS(=O)(=O)c2cccc(N)n2)c(C)c1 [Compound 1016, N-[(6-amino-2-pyridyl)sulfonyl]-6-(3-isopropylphenyl)-2-(2,4,6-trimethylphenoxy)pyridine-3-carboxamide]"

# The remaining lines, values behind:
row,SMILES,EC30
1,"CC(C)COc1cncc(-c2ccc(C(=O)NS(=O)(=O)c3cccc(N)n3)c(N3CC(C)CC3(C)C)n2)n1 (stereo not shown) [Compound 988, N-[(6-amino-2-pyridyl)sulfonyl]-6-(6-isobutoxypyrazin-2-yl)-2-(2,2,4-trimethylpyrrolidin-1-yl)pyridine-3-carboxamide]",+++ (“+++” means <3 uM)
2,"Cc1cc(C)c(Oc2nc(-c3cc(F)cc(OC(C)C)c3)ccc2C(=O)NS(=O)(=O)c2nccnc2N)c(C)c1 [Compound 989, N-(3-aminopyrazin-2-yl)sulfonyl-6-(3-fluoro-5-isopropoxy-phenyl)-2-(2,4,6-trimethylphenoxy)pyridine-3-carboxamide]",+++ (“+++” means <3 uM)
3,"CC(C)COc1cc(F)cc(-c2ccc(C(=O)NS(=O)(=O)c3cccc(N)n3)c(N3CCC(C)CC3)n2)c1 [Compound 991, N-[(6-amino-2-pyridyl)sulfonyl]-6-(3-fluoro-5-isobutoxy-phenyl)-2-(4-methyl-1-piperidyl)pyridine-3-carboxamide]",+++ (“+++” means <3 uM)
4,"CCCOc1ccc(-c2ccc(C(=O)NS(=O)(=O)c3cccc(N)n3)c(Oc3c(C)cc(C)cc3C)n2)cc1 [Compound 996, N-[(6-amino-2-pyridyl)sulfonyl]-6-(4-propoxyphenyl)-2-(2,4,6-trimethylphenoxy)pyridine-3-carboxamide]",+++ (“+++” means <3 uM)
5,"CC(C)COc1cc(F)cc(-c2ccc(C(=O)NS(=O)(=O)c3ccn[nH]3)c(N3CCC(C)C3(C)C)n2)c1 (stereo not shown) [Compound 997, 6-(3-fluoro-5-isobutoxy-phenyl)-N-(1H-pyrazol-5-ylsulfonyl)-2-(2,2,3-trimethylpyrrolidin-1-yl)pyridine-3-carboxamide]",++ (“++” means between 3 uM and 10 uM)
6,"CCCOc1ccc(-c2ccc(C(=O)NS(=O)(=O)c3ccc[nH]c3=O)c(Oc3c(C)cc(C)cc3C)n2)cc1Cl [Compound 999, 6-(3-chloro-4-propoxy-phenyl)-N-[(2-oxo-1H-pyridin-3-yl)sulfonyl]-2-(2,4,6-trimethylphenoxy)pyridine-3-carboxamide]",++ (“++” means between 3 uM and 10 uM)
7,"CC(C)Oc1cc(-c2ccc(C(=O)NS(=O)(=O)c3ccc[nH]c3=O)c(N3[C@H](C)CC[C@@H]3C)n2)ccc1Cl [Compound 1001, 6-(4-chloro-3-isopropoxy-phenyl)-2-[(2S,5R)-2,5-dimethylpyrrolidin-1-yl]-N-[(2-oxo-1H-pyridin-3-yl)sulfonyl]pyridine-3-carboxamide]",++ (“++” means between 3 uM and 10 uM)
8,"Cc1cc(C)c(Oc2nc(-c3ccc(C(C)C)cc3)ccc2C(=O)NS(=O)(=O)c2ccc[nH]c2=O)c(C)c1 [Compound 1002, 6-(4-isopropylphenyl)-N-[(2-oxo-1H-pyridin-3-yl)sulfonyl]-2-(2,4,6-trimethylphenoxy)pyridine-3-carboxamide]",+++ (“+++” means <3 uM)
9,"CC(C)COc1cc(F)cc(-c2ccc(C(=O)NS(=O)(=O)c3cccc(N)n3)c(N3CCCCC3(C)C)n2)c1 [Compound 1004, N-[(6-amino-2-pyridyl)sulfonyl]-2-(2,2-dimethyl-1-piperidyl)-6-(3-fluoro-5-isobutoxy-phenyl)pyridine-3-carboxamide]",+++ (“+++” means <3 uM)
10,"CC(C)COc1cc(F)cc(-c2ccc(C(=O)NS(=O)(=O)c3ccn[nH]3)c(N3CCCC(C)(C)C3)n2)c1 [Compound 1005, 2-(3,3-dimethyl-1-piperidyl)-6-(3-fluoro-5-isobutoxy-phenyl)-N-(1H-pyrazol-5-ylsulfonyl)pyridine-3-carboxamide]",+++ (“+++” means <3 uM)
11,"CC(C)COc1cc(F)cc(-c2ccc(C(=O)NS(=O)(=O)c3ccn[nH]3)c(N3CCC(F)(F)CC3)n2)c1 [Compound 1006, 2-(4,4-difluoro-1-piperidyl)-6-(3-fluoro-5-isobutoxy-phenyl)-N-(1H-pyrazol-5-ylsulfonyl)pyridine-3-carboxamide]",+++ (“+++” means <3 uM)
12,"Cc1cc(C)c(Oc2nc(-c3ccc(OCC4CC4)cc3)ccc2C(=O)NS(=O)(=O)c2ccc[nH]c2=O)c(C)c1 [Compound 1007, 6-[4-(cyclopropylmethoxy)phenyl]-N-[(2-oxo-1H-pyridin-3-yl)sulfonyl]-2-(2,4,6-trimethylphenoxy)pyridine-3-carboxamide]",+++ (“+++” means <3 uM)
13,"CC(C)COc1cc(F)cc(-c2ccc(C(=O)NS(=O)(=O)c3cccc(N)n3)c(N(C)CC3(C)CC3)n2)c1 [Compound 1009, N-[(6-amino-2-pyridyl)sulfonyl]-6-(3-fluoro-5-isobutoxy-phenyl)-2-[methyl-[(1-methylcyclopropyl)methyl]amino]pyridine-3-carboxamide]",+++ (“+++” means <3 uM)
14,"CC(C)COc1cc(F)cc(-c2ccc(C(=O)NS(=O)(=O)c3cccc(N)n3)c(N(C)CC3CC3)n2)c1 [Compound 1010, N-[(6-amino-2-pyridyl)sulfonyl]-2-[cyclopropylmethyl(methyl)amino]-6-(3-fluoro-5-isobutoxy-phenyl)pyridine-3-carboxamide]",+++ (“+++” means <3 uM)
15,"CC(C)COc1cccc(-c2ccc(C(=O)NS(=O)(=O)c3cccc(N)n3)c(N3CCCC3(C)C)n2)n1 [Compound 1011, N-[(6-amino-2-pyridyl)sulfonyl]-2-(2,2-dimethylpyrrolidin-1-yl)-6-(6-isobutoxy-2-pyridyl)pyridine-3-carboxamide]",+++ (“+++” means <3 uM)
16,"CC(C)COc1cc(F)cc(-c2ccc(C(=O)NS(=O)(=O)c3cccc(N)n3)c(N3CC(C)CC(C)C3)n2)c1 (stereo not shown) [Compound 1013, N-[(6-amino-2-pyridyl)sulfonyl]-2-(3,5-dimethyl-1-piperidyl)-6-(3-fluoro-5-isobutoxy-phenyl)pyridine-3-carboxamide]",+++ (“+++” means <3 uM)
17,"CC(C)COc1cc(F)cc(-c2ccc(C(=O)NS(=O)(=O)c3cccc(N)c3)c(N3CCC(C)(C)CC3)n2)c1 [Compound 1014, N-(3-aminophenyl)sulfonyl-2-(4,4-dimethyl-1-piperidyl)-6-(3-fluoro-5-isobutoxy-phenyl)pyridine-3-carboxamide]",+++ (“+++” means <3 uM)
